System: Lyn
Test: FcεRI-dependent Lyn activation in RBL-2H3 cells
Type: cell-based, rat
Description: To examine the functional similarities with G4G11, the inventors explored the biological effects of C-13 on mast cell activation. […] Similarly to the intrabody G4G11, C-13 inhibited the phosphorylation and FcεRI-induced kinase activity of Btk (FIG. 2A) and the phosphorylation of PLC-γ1 and PLC-γ2, the two PLC-γ isoforms expressed in mast cells (FIGS. 2A, C). PTK Lyn phosphorylates both Syk and Btk giving rise to the complete activation thereof and the subsequent phosphorylation of PLC-γ^18.
• 1) Chemical products and antibodies. A chemical bank of 3000 molecules (a varied subset) was acquired from ChemBridge, Inc. (San Diego, Calif.). Stocks of solutions of small molecules were prepared at a rate of 10 mM in DMSO (dimethylsulphoxide), except for C-13 (methyl 2-{5-[(3-benzyl-4-oxo-2-thioxo-1,3-thiazolidin-5-ylidene)methyl]-2-furyl}benzoate, ChemBridge ID No. 6197026) prepared in DMF (dimethylformamide). […] The binding of G4G11 with Syk was assessed by adding the 9E10 monoclonal antibody conjugated with HRP detecting the amino acid sequence EQKLISEEDLN of human c-myc protein located at the C-terminal end of the scFv fragment. To generate Syk mutants, targeted mutagenesis was used on GST:Syk 6-242 protein and the binding of G4G11 with the mutants was assessed in the presence of 5 μM of C-13. • 3) Cells, culture conditions and functional tests. […]

Compound: COC(=O)c1ccccc1-c1ccc(/C=C2/SC(=S)N(Cc3ccccc3)C2=O)o1 [Molecule C-13, methyl 2-{5-[(3-benzyl-4-oxo-2-thioxo-1,3-thiazolidin-5-ylidene)methyl]-2-furyl}benzoate]
- FcεRI-dependent Lyn activation: did not affect
